Consider 23 compounds from patent US6720313B1, “Biocidal composition containing phosphite ions” (Mattersmiths Holdings Limited, priority 1998, dated 2004).

Values after ≈ are worked out from the molar mass of the structure shown. Read-outs that look alike come from different tables or passages of the source.

Usually Solubility stands for how much of the substance goes into solution per volume.

The conditions of data set [1]: metal oxinates; cited from earlier work.
A short description of data set [2]: solubility studies of oxine copper using the invention. The format is physicochemical. The text has this:
We have carried out many solubility studies using the technology of this invention. For example, we are able to produce solutions stable at ambient temperature of oxine copper at concentrations greater than 100 grams per 200 mls of final product. Because the specific gravity of such solutions is approximately […] this yields a solution of oxine copper of 50 per cent weight/volume or more. This concentration is commercially viable to use and eliminates many of the potentially toxic or flammable formulation aids used in prior art solubilisation of oxine copper.

A short description of data set [3]: precipitation of solubilised biocides on addition of a higher pH solution. It counts as physicochemical. To be noted: aqueous solutions, pH raised to greater than 5. The text has this:
We carried out several studies, some in aqueous systems and others on wood subsequent to the biocide formulation being applied, wherein we applied a further solution with higher pH to increase the pH to greater than 5.

The conditions of data set [4]: cited from earlier work.
The procedure of data set [5]:
These are prepared by addition of stoicheiometric quantities of precursors of the compounds concerned to produce the salt desired.

For data set [6] the following is noted: cited from earlier work. This is another data set of the same source.
Data set [7] is classed as physicochemical. From the text:
We decreased the pH by addition of phosphorous acid.
We have achieved solubility of fenpropimorph of as much as 10% by weight. This high level of solubility remains when that active is also the presence of 10-20% of other biocides.

The conditions of data set [8]: acids including phosphorous acid; cited from earlier work.
Data set [9] has as its system natural fungal inoculum on mini discs of Pinus radiata. Put plainly: mini disc trial of fungicidal efficacy. The format is cell-based. To be noted: compared with untreated control. As for the experimental part: For example, a mini disc trial, typically used to assess formulation efficacy, was used to establish relative efficacy of various formulations. Included in the trial were formulations using both phosphoric acid and phosphorous acid.
These examples were then diluted in water to produce stable solutions and then tested against a natural fungal inoculum on mini discs of Pinus radiata to determine fungicidal efficacy. The following table, Table 5, illustrates the relative performance of each biocide after 3 weeks in an incubator.
These formulations were then diluted and tested using the mini disc method. Also included was an industry standard based on the formulation of U.S. Pat. No. 4,950,685 coded in the trial as KC1 and listed in Table 7.
The formulations were then tested using a mini disc trial with results as disclosed in Table 9.

As to `[O-]c1cccc2cccnc12.[O-]c1cccc2cccnc12.[Pb+2]` [Lead], in data set [1], the pH complete precipitation is reported as 8.4-12.3 and the pH initial precipitation is 4.8.

As to `[O-]c1cccc2cccnc12.[O-]c1cccc2cccnc12.[Zn+2]` [Zinc], in data set [1], the pH complete precipitation is given as over 4.4 and the pH initial precipitation was 3.3.

For the compound “copper 8-hydroxyquinolinolate [oxine copper]”, the solution concentration weight/volume in data set [2] (ambient temperature) is reported as at least 50 per cent weight/volume. Moreover, the “concentration of solutions stable at ambient temperature” value in data set [2] (phosphorous acid solution) is “greater than 100 grams per 200 mls of final product”. Besides, in data set [3], the “effect of adding a solution of higher pH” value is “immediate precipitation”. For the same compound, the pH complete precipitation result in data set [1] was “greater than 3.3”. Besides, in data set [4] (in vivo, po), the “Oral LD50 Rat” value is on record as 10,000 mg/kg.

Regarding `[Mg]` [Magnesium], in data set [1], the pH complete precipitation is recorded as over 8.7 and the pH initial precipitation is 7.0.

Turning to arsenic, in data set [4], the “LD50 Rat” value was 15 to 293 mg/kg.

Turning to `[Co+2].[O-]c1cccc2cccnc12.[O-]c1cccc2cccnc12` [Cobalt], the pH for dissolution in [5] (transition metal phosphites) is under 4.5. Besides, in data set [1], the pH complete precipitation is on record as 4.9-11.6 and the pH initial precipitation was 3.6.

Turning to `[Al+3].[O-]c1cccc2cccnc12.[O-]c1cccc2cccnc12.[O-]c1cccc2cccnc12` [Aluminium], in data set [1], the pH complete precipitation is reported as 4.7-9.8 and the pH initial precipitation is on record as 2.9.

Take Titanium: in data set [1], the pH complete precipitation is 4.8-8.6 and the pH initial precipitation is 3.6.

As for `[Cd]` [Cadmium], in data set [1], the pH complete precipitation was 5.5-13.2 and the pH initial precipitation is listed as 4.5.

In the case of Bismuth, in data set [1], the pH complete precipitation is given as 5.2-9.4 and the pH initial precipitation is 3.7.

On to `CC(Cc1ccc(C(C)(C)C)cc1)CN1C[C@@H](C)O[C@@H](C)C1` (some centres unmarked) [fenpropimorph, dimethylethyl phenyl methylpropyl dimethylmorpholine], for which the Solubility in data set [6] (pH 4.4) is 7300 µg/mL (≈ 24100 µM); in [6] (pH 7), 4.3 µg/mL (≈ 14.2 µM); in [6] (pH 9) it was 3.5 µg/mL (≈ 11.5 µM). In data set [7], this compound came in with a solubility achieved of at most 10 % by weight.

As to phosethyl-Al, in data set [8], the stability to acids entry is “decomposed by acids”.

For the compound `OP(O)O` [phosphorous acid], the “fungicidal activity of phosphorous acid alone” value in data set [9] is reported as “marginal improvement over the untreated control”.

As for `[Fe+3].[O-]c1cccc2cccnc12.[O-]c1cccc2cccnc12.[O-]c1cccc2cccnc12` [Iron], the pH for dissolution in [5] (transition metal phosphites) is given as under 3.5. Further, in data set [5] (transition metal phosphites, pH = 7), the “Solubility at pH = 7” value is “Insoluble”. Further, in [1], the pH complete precipitation is recorded as 4.1-11.2 and the pH initial precipitation is 2.5.

Regarding `[Ni+2].[O-]c1cccc2cccnc12.[O-]c1cccc2cccnc12` [Nickel], the pH for dissolution in [5] is listed as under 4.5. Besides, in data set [1], the pH complete precipitation is recorded as 4.6-10.0 and the pH initial precipitation is 3.5.

As to `COC(=O)Nc1nc2ccccc2[nH]1` [Carbendazim, methyl benzimidazoyl carbamate], the “effect of adding a solution of higher pH” value in data set [3] is “immediate precipitation”.

For `[Mn+2]` [Manganese], in data set [5], the “Solubility at pH = 7” value is listed as “Insoluble”. For the same compound, the pH for dissolution in [5] (transition metal phosphites) was under 4.5. Further, in data set [1], the pH complete precipitation is recorded as 5.9-9.5 and the pH initial precipitation is 4.3.

As to maneb, the stability to acids entry in data set [8] was “decomposed by acids”.

On to mancozeb, for which the stability to acids entry in data set [8] is “decomposed by acids”.

On to copper, for which the “Solubility at pH = 7” value in [5] is “Insoluble”. The pH for dissolution in data set [5] (transition metal phosphites) was under 3.5. In [1], the pH complete precipitation is reported as over 3.3 and the pH initial precipitation is listed as 3.0.

Take Tungsten: in data set [1], the pH complete precipitation is 5.0-5.7 and the pH initial precipitation was 3.5.

Consider `[Mo]` [Molybdenum], for which, in data set [1], the pH complete precipitation is given as 3.6-7.3 and the pH initial precipitation is reported as 2.0.

On to `[Ca]` [Calcium], for which, in [1], the pH complete precipitation is 9.2-12.7 and the pH initial precipitation is 6.8.
